Source: patent US20050113286A1, “Methods for treating congestive heart failure” (priority 2002, published 2005)

Columns and labels:
[1] = tested on: symptoms of acute decompensated HF; settings: VMAC trial; cited from earlier work
[2] = tested on: patients with chronic decompensated HF; experiment: FUSION I: clinical outcomes (death, hospitalization, days alive and out of hospital) through 12 weeks; format: in vivo, human
Description: In this multicenter, open-label, pilot study, patients were randomly assigned to 1 of 3 treatment groups in a 1:1:1 ratio: (1) usual care, as determined by the investigating physician; (2) usual care plus nesiritide 0.005 μg/kg/min given for 4 to 6 hours, preceded by a 1.0-μg/kg bolus; or (3) usual care plus nesiritide 0.01 μg/kg/min given for 4 to 6 hours, preceded by a 2.0-μg/kg bolus (FIG. 1). The study treatment period was 12 weeks with an additional 4 weeks of follow-up. Nesiritide (Natrecor®) was supplied by Scios Inc., Fremont, Calif. Informed consent was obtained from each patient prior to enrollment, and the Ethics Committee of each institution prospectively approved the study.
The primary goal of this open-label study was to assess the safety and tolerability of different nesiritide doses administered as serial outpatient infusions. Safety and tolerability were measured through investigator reporting of adverse events (AEs), serious AEs, discontinuations of study infusions, laboratory assessments, and vital signs. An AE was defined as any new onset or worsening of any medical condition since study entry. A serious AE were those AEs, which lead to death, hospitalization, or prolonged hospitalization. The effect of nesiritide infusions on renal function was also monitored as a safety variable, with renal AEs defined as increased blood urea nitrogen (BUN) or serum creatinine levels (determined by investigator's discretion), onset of oliguria, or occurrence of acute renal failure. Clinical events were followed to further evaluate safety and tolerability.
To characterize treatment groups with respect to known prognostic factors for hospitalization or death, patients were prospectively stratified using a Risk Assessment Score (RAS). Two levels of risk were defined: patients with an RAS≧4 (i.e., with 4 or more of the 7 risk factors) and patients with an RAS<4. Risk factors utilized were: (1) serum creatinine of >2.0 mg/dl in the preceding 30 days; (2) NYHA class IV for the preceding 60 days; (3)≧65 years old; (4) history of sustained ventricular tachycardia; (5) ischemic etiology of HF; (6) diabetes; and (7) outpatient use of nesiritide or inotropic agents in preceding 6 months.
The effect of treatment was assessed with a 2-way ANOVA, an F test, a stratified Wilcoxon test, a Wilcoxon test, or the generalized Fisher's exact test, depending on the distribution of the variable. Kaplan-Meier estimates of the survival curves for morbidity/mortality time-to-event data were calculated. A log-rank or stratified log-rank test was used for comparisons between 2 treatment groups.

[3] = tested on: patients with chronic decompensated HF; experiment: FUSION I: left ventricular ejection fraction by echocardiography; format: in vivo, human
Excerpt: Surrogate measures with mechanistic implications included measures of serum aldosterone, serum endothelin-1, and serial measurements of ventricular function using ejection fractions derived from echocardiography. Pre-infusion aldosterone and endothelin-1 concentrations were collected and analyzed at a core lab (The Mayo Clinic, Rochester, Minn.) at weeks 1, 4, 8, and 12; post-infusion concentrations were collected at weeks 1 and 12. Left ventricular ejection fractions were serially measured and read at a core lab (Midwest Heart Foundation Echocardiographic Core Laboratory, Lombard, Ill.).

[4] = RAS ≧4 patients, 0.005 μg/kg/min, n = 24, through 12 weeks
[5] = RAS ≧4 patients, 0.01 μg/kg/min, n = 20, through 12 weeks
[6] = RAS ≧4 patients, both nesiritide groups, n = 44, through 12 weeks
[7] = all patients, 0.005 μg/kg/min, n = 72, through 12 weeks
[8] = all patients, 0.01 μg/kg/min, n = 69, through 12 weeks
[9] = all patients, both nesiritide groups, n = 141, through 12 weeks
[10] = baseline NYHA class IV, 0.005 μg/kg/min, n = 25
[11] = baseline NYHA class IV, 0.01 μg/kg/min, n = 22
[12] = baseline NYHA class IV, both nesiritide groups, n = 47
[13] = baseline NYHA class IV, both nesiritide groups, n = 47, p = 0.148 compared with usual care
[14] = lowest serum creatinine >2.0 mg/dL during 30 days prior to the study, 0.005 μg/kg/min, n = 13
[15] = lowest serum creatinine >2.0 mg/dL during 30 days prior to the study, 0.01 μg/kg/min, n = 14
[16] = lowest serum creatinine >2.0 mg/dL during 30 days prior to the study, both nesiritide groups, n = 27
[17] = lowest serum creatinine >2.0 mg/dL during 30 days prior to the study, both nesiritide groups, n = 27, p = 0.176 compared with usual care

Nesiritide: a recombinant form of human B-type natriuretic peptide (BNP)
Resolution of the symptoms of acute decompensated HF versus IV diuretics or nitroglycerin [1]: more rapid resolution | Hospitalizations compared with usual care ([2]; NYHA class IV status): trend towards a reduction | All-cause death and hospitalization, % of patients [2, 4]: 42% | All-cause death and hospitalization, number of patients [2, 4]: 10 | All-cause hospitalization, % of patients [2, 4]: 42% | All-cause hospitalization, number of patients [2, 4]: 10 | Days alive and out of hospital, 25th percentile [2, 4]: 74.6 days | Days alive and out of hospital, Mean ± SD [2, 4]: 76.3 ± 16.8 days | Deaths, % of patients [2, 4]: 4% | Deaths, number of patients [2, 4]: 1 | All-cause death and hospitalization, % of patients [2, 5]: 65% | All-cause death and hospitalization, number of patients [2, 5]: 13 | All-cause hospitalization, % of patients [2, 5]: 60% | All-cause hospitalization, number of patients [2, 5]: 12 | Days alive and out of hospital, 25th percentile [2, 5]: 75.3 days | Days alive and out of hospital, Mean ± SD [2, 5]: 77.2 ± 14.0 days | Deaths, % of patients [2, 5]: 5% | Deaths, number of patients [2, 5]: 1 | All-cause death and hospitalization, % of patients [2, 6]: 52% | All-cause death and hospitalization, number of patients [2, 6]: 23 | All-cause hospitalization, % of patients [2, 6]: 50% | All-cause hospitalization, number of patients [2, 6]: 22 | Days alive and out of hospital, 25th percentile [2, 6]: 75.0 days | Days alive and out of hospital, Mean ± SD [2, 6]: 76.7 ± 15.5 days | Deaths, % of patients [2, 6]: 5% | Deaths, number of patients [2, 6]: 2 | Days alive and out of the hospital compared to the usual care group ([2]; RAS≧4 cohort, p=0.027): statistically significant increase | Deaths or hospitalizations compared with usual care only ([2]; RAS≧4 patients): statistically significantly fewer | All-cause death and hospitalization, % of patients [2, 7]: 46% | All-cause death and hospitalization, number of patients [2, 7]: 33 | All-cause hospitalization, % of patients [2, 7]: 44% | All-cause hospitalization, number of patients [2, 7]: 32 | Days alive and out of hospital, 25th percentile [2, 7]: 74.2 days | Days alive and out of hospital, Mean ± SD [2, 7]: 76.1 ± 15.3 days | Deaths, % of patients [2, 7]: 8% | Deaths, number of patients [2, 7]: 6 | All-cause death and hospitalization, % of patients [2, 8]: 49% | All-cause death and hospitalization, number of patients [2, 8]: 34 | All-cause hospitalization, % of patients [2, 8]: 48% | All-cause hospitalization, number of patients [2, 8]: 33 | Days alive and out of hospital, 25th percentile [2, 8]: 79.0 days | Days alive and out of hospital, Mean ± SD [2, 8]: 78.9 ± 10.9 days | Deaths, % of patients [2, 8]: 4% | Deaths, number of patients [2, 8]: 3 | All-cause death and hospitalization, % of patients [2, 9]: 48% | All-cause death and hospitalization, number of patients [2, 9]: 67 | All-cause hospitalization, % of patients [2, 9]: 46% | All-cause hospitalization, number of patients [2, 9]: 65 | Days alive and out of hospital, 25th percentile [2, 9]: 77.6 days | Days alive and out of hospital, Mean ± SD [2, 9]: 77.5 ± 13.3 days | Deaths, % of patients [2, 9]: 6% | Deaths, number of patients [2, 9]: 9 | Deaths or hospitalizations compared with usual-care group ([2]; all patients, each nesiritide dose group and all nesiritide group): no statistically significant differences | Days alive and out of the hospital compared with usual-care patients ([2]; all patients, p=0.131): trends for increasing days alive and out of the hospital | Days alive and out of hospital, Mean ± SD [2, 10]: 73.3 ± 18.4 days | Days alive and out of hospital, Median [2, 10]: 84 days | Patient deaths, % [2, 10]: 8% | Patient deaths, number [2, 10]: 2 | Patients hospitalized, % [2, 10]: 48% | Patients hospitalized, number [2, 10]: 12 | Days alive and out of hospital, Mean ± SD [2, 11]: 77.7 ± 13.5 days | Days alive and out of hospital, Median [2, 11]: 82 days | Patient deaths, % [2, 11]: 5% | Patient deaths, number [2, 11]: 1 | Patients hospitalized, % [2, 11]: 55% | Patients hospitalized, number [2, 11]: 12 | Days alive and out of hospital, Median [2, 12]: 83 days | Patient deaths, % [2, 12]: 6% | Patient deaths, number [2, 12]: 3 | Patients hospitalized, % [2, 13]: 51% | Patients hospitalized, number [2, 13]: 24 | Days alive and out of hospital, Mean ± SD ([2]; baseline NYHA class IV, both nesiritide groups, n = 47, p = 0.182 compared with usual care): 75.4 ± 16.2 days | Days alive and out of hospital compared to usual care alone ([2]; elevated serum creatinine, >2.0 mg/dL): statistically significant increase | Days alive and out of hospital, Mean ± SD [2, 14]: 75.7 ± 19.0 days | Days alive and out of hospital, Median [2, 14]: 84 days | Patient deaths, % [2, 14]: 8% | Patient deaths, number [2, 14]: 1 | Patients hospitalized, % [2, 14]: 46% | Patients hospitalized, number [2, 14]: 6 | Days alive and out of hospital, Mean ± SD [2, 15]: 78.4 ± 9.0 days | Days alive and out of hospital, Median [2, 15]: 81 days | Patient deaths, % [2, 15]: 7% | Patient deaths, number [2, 15]: 1 | Patients hospitalized, % [2, 15]: 57% | Patients hospitalized, number [2, 15]: 8 | Days alive and out of hospital, Median [2, 16]: 81 days | Patient deaths, % [2, 16]: 7% | Patient deaths, number [2, 16]: 2 | Days alive and out of hospital, Mean ± SD ([2]; lowest serum creatinine >2.0 mg/dL during 30 days prior to the study, both nesiritide groups, n = 27, p = 0.019 compared with usual care): 77.1 ± 14.7 days | Patients hospitalized, % [2, 17]: 52% | Patients hospitalized, number [2, 17]: 14 | Mean change in ejection fraction from baseline to week 12 ([3]; 0.005-μg/kg/min): +4.0±3.3% | Mean change in ejection fraction from baseline to week 12 ([3]; 0.01-μg/kg/min, p=0.03 compared with the usual-care group): +5.3±5.0%
